# Assay results reported in patent US12076332B2, “Treatment of lysosomal storage disorders” (The Regents of the University of California, priority 2018, dated 2024).
# “Also recorded” adds a separate entry of the source.
# Tests used:
# MPS-IIIA mice [1] = assay: Anti-LC3 immunofluorescence on brain sections; type: in vivo, mouse
# Text: FIG. 9. Panels A and B, show anti-LC3 immunofluorescence on brain sagittal sections from the four experimental groups of mice. The number of LC3-positive dots (either total or large dots) were quantified in 15 different fields from the cortical regions for each group. Three mice for each experimental group. […] Panel C) Immunofluorescence analysis of colocalization in MPS-IIIA mice brain sagittal sections between LC3 (green) and Lamp1 (red), LC3 (green) and Neurofilament (red). […] Panel E) Immunohistochemistry analysis of anti-Ubiquitin K63 signal on brain sagittal sections derived from the four experimental groups of mice. Images from cerebral cortex shown. UbK63 immuno-reactivity quantified in 10 different fields from the cortical regions from each group.
# (§1) Medial sagittal sections of frozen brain tissue were cut on a cryostat at either 12 or 40 μm of thickness, permeabilized (PBS, 0.2% Tween[…]20, and 10% fetal bovine serum), and stained with appropriate primary and secondary antibodies overnight at […] Sections were analyzed by Confocal microscope Zeiss LSM 710 using either 63× or 40× objectives. Stained sections were mounted with Vectashield (Vector Laboratories, CA, USA).
# In healthy neurons autophagosomes are efficiently cleared upon axonal retrograde transport and lysosomal encountering and, therefore, are rarely found in neurites or cell bodies unless lysosomal-dependent autophagosome clearance is disrupted (Boland et al. (2008) J. Neurosci. 28: 6926-6937; Maday et al. (2012) J. Cell Biol. 196: 407-417; Lie & Nixon (2019) Neurobiol. Dis. 122: 94-105).
# WT mice [2] = conditions: daily s.c. injection for 4.5 months
# MPS-IIIA mice [3] = assay: IHC anti-UbK63 on brain sections; type: in vivo, mouse; conditions: CLR01-treated MPS-IIIA brain vs control MPS-IIIA brain
# Text: (§2) FIG. 9. Panels A and B, show anti-LC3 immunofluorescence on brain sagittal sections from the four experimental groups of mice. The number of LC3-positive dots (either total or large dots) were quantified in 15 different fields from the cortical regions for each group. Three mice for each experimental group. […] Panel C) Immunofluorescence analysis of colocalization in MPS-IIIA mice brain sagittal sections between LC3 (green) and Lamp1 (red), LC3 (green) and Neurofilament (red). […] Images from cerebral cortex shown.
# For paraffin embedding, mice brain were fixed in 4% paraformaldehyde (PFA) overnight at 4° C., then mice brain were dehydrated in a graded series of ethanol, cleared with xylene, and infiltrated with paraffin. Paraffin-embedded blocks were cut on a microtome in 6-μm sagittal sections. Immunohistochemistry experiments were […] performed using the Universal Vectastain Elite ABC HRP Kit (PK6200, Vector Laboratories). For all immunostainings were used sagittal sections, rinsed in PBS1×-Triton 0.1% and treated with 1% H2O2 for 30 min to quench endogenous peroxidase activity. […]
# (§3) To evaluate whether the normalization of the lysosomal compartment mediated by amyloid deposition inhibition was also associated to a functional recovery of lysosomes, the ALP was analyzed in MPS-IIIA mouse brain upon CLR01 treatment. […]
# MPS-IIIA mice [4] = assay: Thioflavin S staining of amyloid deposits in brain sections; type: in vivo, mouse
# Text: CLR01 was produced in the facility of Professor Gal Bitan (Associate Professor of Neurology, Department of Neurology, University of California, UCLA). […] […] CLR01 dosage has been chosen on the basis of safety and pharmacological characterization of CLR01 in mice (Attar et al. (2014) BMC Parmacol. & Toxicol 15: 23).
# After euthanization, mouse brain was collected from each experimental group and perfused with phosphate-buffered saline (PBS pH 7,4) to completely clear blood from tissue. The brains were divided in two equal parts: half of each was frozen in dry ice and used for biochemical analysis. The other halves were fixed in 4% (w/v) paraformaldehyde in PBS and embedded in Optimal cutting temperature compound (OCT compound) or paraffin.
# For thioflavin S histochemistry were used cryosections (12 μm), then sections were incubated in 0.1% thioflavin S for 10 min. Slides were immersed to 80% ethanol solution for 5 min, and mounted using FLUORSAVE™ reagent. Positive staining was observed using a Leica DM5500 scan.
# The inventors therefore tested whether CLR01 (FIG. 4, panel A), was effective in targeting and destroying amyloid aggregation in MPS IIIA mice. […] Both treatments ended at 7 months of age, when the neuropathological phenotype becomes evident in MPS-IIIA mice (Lau et al. (2008) Behav. Brain Res. 191: 130-136; Sambri et al. (2016) EMBO Mol. Med. e201606965; Sorrentino et al. (2013) EMBO Mol. Med. 5: 675-690; Wilkinson et al. (2012) PloS one, 7: e35787). The two different treatment regimens allowed evaluation of the potential therapeutic effect of CLR01 resulting from either prevention or disassembly of amyloid aggregation.
# The potential therapeutic efficacy of CLR01 in MPS-IIIA was further tested by treating MPS-IIIA mice at 4.5 months of age (before massive amyloid aggregation takes place) with daily sub-cutaneous injection of CLR01 over a period of 4.5 months.
# MPS-IIIA mice [5] = assay: IHC anti-LAMP1 on brain sections; type: in vivo, mouse; conditions: daily s.c. injection for 4.5 months
# Protocol: (§4) FIG. 8. […] Images from cerebral cortex shown. […] Three mice for each experiment group.
# (§5) For paraffin embedding, mice brain were fixed in 4% paraformaldehyde (PFA) overnight at 4° C., then mice brain were dehydrated in a graded series of ethanol, cleared with xylene, and infiltrated with paraffin. Paraffin-embedded blocks were cut on a microtome in 6-μm sagittal sections. Immunohistochemistry experiments were […] performed using the Universal Vectastain Elite ABC HRP Kit (PK6200, Vector Laboratories). For all immunostainings were used sagittal sections, rinsed in PBS1×-Triton 0.1% and treated with 1% H2O2 for 30 min to quench endogenous peroxidase activity. At this point the sections were exposed at PBS or at Proteinase K digestion (50 μg/ml) for 2 minutes at 37° C. to detect protease resistant structures. After this point the sections were blocked for 1 hour in PBS1×-TritonX-100 0.1%-2% Horse Serum and then incubated with specific antibodies overnight at […], followed by incubation in biotinylated universal antibody (Vector Laboratories) for 90 minutes at room temperature and in ABC reagent (Vector Laboratories) for 45 minutes at room temperature. Sections were dehydrated and then mounted with Leica CV ULTRA (Leica micro systems). Visualization was performed using 3,3-diaminobenzidine tetrahydrochloride (DAB Vector Laboratories). […]
# MPS-IIIA mice [6] = assay: GFAP and IBA1 staining of neuro-inflammation in brain; type: in vivo, mouse
# MPS-IIIA mice [7] = conditions: MPS-IIIA mouse brain, daily s.c. injection for 4.5 months, 9 months of age
# Text: Panel B) TEM analysis of synaptic vesicles number. […] The arrows indicate the synaptic cleft. ***p<0.0001 vs WT+Saline; ###p<0.0001 vs MPS-IIIA+saline, One-way ANOVA analysis with Bonferroni's multiple comparison test.
# [8] = systemic administration, mice; cited from earlier work
# MPS-IIIA mice [9] = assay: TEM analysis of number/size of lysosomes; type: in vivo, mouse
# Text: as §4
# MPS-IIIA mice [10] = assay: Western blot of LC3-II and p62 on brain lysates; type: in vivo, mouse
# MPS-IIIA mice [11] = conditions: mouse, in vivo, sc, 1 mg/kg/day
# WT mice [12] = assay: Anti-LC3 immunofluorescence on brain sections of WT mice; type: in vivo, mouse; conditions: CLR01-treated WT mice
# Text: as §2, §1, §3
# WT mice [13] = assay: IHC anti-LAMP1 on brain sections of WT mice; type: in vivo, mouse; conditions: daily s.c. injection for 4.5 months
# Protocol: as §4, §5
# [14] = systemic administration; cited from earlier work
# MPS-IIIA mice [15] = assay: Contextual fear conditioning test; type: in vivo, mouse; conditions: daily s.c. injection for 4.5 months, 9 months of age
# Text: FIG. 7. […] Panel B) TEM analysis of synaptic vesicles number. […] Panel C) Contextual fear condition task.
# [16] = tested on: mouse models of synucleinopathies and Alzheimer's disease; conditions: cited from earlier work
# WT mice [17] = conditions: daily s.c. injection for 4.5 months; remark: listed apart in the source
# Text: Panel C) IHC anti-Lamp-on brain sagittal sections derived from the four experimental groups of mice (WT saline-injected, WT CLR01-injected, MPS-IIIA-saline injected and MPS-IIIA CLR01-injected). Images from cerebral cortex shown. Lamp 1 immuno-reactivity quantified in 10 different fields from the cortical regions for each group. Three mice for each experimental group. ***p<0.001 vs WT; ###P<0.001 vs MPS-IIIA+saline, One-way ANOVA analysis with Bonferroni's multiple comparison test. Panels D and E) TEM analysis to quantify the number/size of lysosomes in the four experimental group of mice. Three mice for each experiment group. Representative TEM images were shown on the left panel. *, **, *** p<0.05, 0.01, 0.001 vs WT; ##, ###, P<0.01, 0.001 vs MPS-IIIA+saline, One-way ANOVA analysis with Bonferroni's multiple comparison test.
# WT mice [18] = assay: Lysosomal autophagic axis in WT mice; type: in vivo, mouse; conditions: WT mice upon treatment
# Text: Therefore, the present data support a model in which progressive amyloid build-up into lysosomes impairs autophagic flux. Mechanisms underlying such effect involve the negative impact of amyloids on autophagosome clearance through the prevention of lysosome encountering. […] This might be a consequence of the relief of the autophagy block and/or might be a result of a more specific effect of CLR01 on lysosomal-mediated signaling pathways inducing ALP, signaling that may be impaired by amyloid deposition in MPS-IIIA.
# [19] = CLR01-treated MPS-IIIA brain vs WT
# [20] = MPS-IIIA brain, daily s.c. injection for 4.5 months
# [21] = MPS-IIIA brain lysates, CLR01 vs saline
smiles,measurement,setting,value
O=P(O)(O)Oc1c2c(c(OP(=O)(O)O)c3c1C1CC3c3cc4c(cc31)C1CC4c3ccccc31)C1CC2c2cc3c(cc21)C1CC3c2ccccc21 [CLR01],number of LC3 dots (both large and normal sized) compared to WT brain,MPS-IIIA mice [1]; [19],remained significantly higher compared to WT brain
same,autophagic flux / autophagy block,"MPS-IIIA mice [1]; MPS-IIIA brain, conclusion from LC3 dots",autophagic flux was re-activated; also recorded: able to relief autophagy block
same,large LC3 dots (>0.8 μm^2),"MPS-IIIA mice [1]; MPS-IIIA brain, cortical regions, daily s.c. injection for 4.5 months",significantly reduced large LC3 dots
same,inflammatory response by GFAP and Iba1 IHC,WT mice [2],did not elicit inflammatory response
same,"UbK63 IHC signal, cerebral cortex",MPS-IIIA mice [3],significant signal reduction
same,thioflavin-positive inclusions / amyloid deposition in brain,"MPS-IIIA mice [4]; MPS-IIIA mice, daily s.c. injection for 4.5 months from 4.5 months of age, analysed at 9 months",reduction of amyloid deposition; also recorded: almost complete absence of thioflavin-positive inclusions
same,amyloid proteins by Thioflavin S staining,"MPS-IIIA mice [4]; asymptomatic MPS-IIIA mice, 1 mg/kg/day s.c. osmotic pump, 2 months from 5 months of age, analysed at 7 months",complete disappearance of amyloid proteins
same,amyloid deposits by Thioflavin S staining in different brain regions,"MPS-IIIA mice [4]; symptomatic MPS-IIIA mice, 1 mg/kg/day s.c. osmotic pump, 1 month from 6 months of age, analysed at 7 months",partial removal of amyloid deposits
same,"LAMP1-positive immunostaining, cerebral cortex",MPS-IIIA mice [5],markedly reduced LAMP1-positive immunostaining
same,"neuroinflammatory markers GFAP and IBA1, immunofluorescence","MPS-IIIA mice [6]; 2 months of treatment, at 7 months of age",strong reduction of inflammation
same,"neuro-inflammation by GFAP and Iba1 IHC, cortex and striatum","MPS-IIIA mice [6]; daily s.c. injection for 4.5 months, 9 months of age",reduction in both inflammatory markers; also recorded: strongly reduced neuro-inflammation
same,"synaptic abnormalities (synaptic vesicles/synaptic cleft length ratio, TEM)",MPS-IIIA mice [7],able to rescue synaptic abnormalities
same,safety margin,[8],high safety margin
same,total number of lysosomes,MPS-IIIA mice [9]; CLR01-treated MPS-IIIA brain vs control MPS-IIIA mice,remained significantly higher than control MPS-IIIA mice
same,average lysosomal size (EM),MPS-IIIA mice [9]; [20],significant reduction in the average lysosomal size
same,number of abnormal-sized lysosomes (>800 nm),MPS-IIIA mice [9]; [20],decreased number of abnormal-sized lysosomes
same,LC3-II levels compared to WT,MPS-IIIA mice [10]; [19],remained significantly higher than WT
same,"LC3-II protein level (Western blot, normalized to β-actin)",MPS-IIIA mice [10]; [21],reduction; also recorded: damped down
same,"p62 protein level (Western blot, normalized to β-actin)",MPS-IIIA mice [10]; [21],reduction; also recorded: damped down
same,"build-up of amyloid components (α-Synuclein, PrP, Aβ1-42, Tau), proteinase K-resistant",MPS-IIIA mice [11],efficient inhibition of the build-up of several amyloid components
same,LC3 staining,WT mice [12],a significant change in LC3 staining was observed
same,LAMP1 compartment volume,WT mice [13],did not modify LAMP1 compartment volume
same,brain targeting / blood-brain barrier crossing,[14],cross the blood-brain barrier
same,"memory deficit (freezing time, contextual fear conditioning)",MPS-IIIA mice [15],rescue of memory deficits; also recorded: fully rescued
same,protection against protein aggregation and neurodegeneration,[16],very effective in protecting against protein aggregation and neurodegeneration
same,lysosome size/number,WT mice [17],did not affect lysosome size/number
same,lysosomal autophagic axis,WT mice [18],no significant change in lysosomal autophagic axis
